The results in this text go back to EP4696688A1, “BENZO-FUSED RING COMPOUND INHIBITOR, AND PREPARATION METHOD THEREFOR AND USE THEREOF” (Shanghai Hansoh Biomedical Co., Ltd., priority 2023, dated 2024).

Molecules are shown by their SMILES.

Data set [1] in a line: Pharmacokinetic determination in rats. The conditions noted are these: rat, male SD rats, plasma, oral administration (PO) 5 mg/kg; for MRT inf: read-out: MRT0-∞. It is filed as in vivo. As to the method:
SD rats were used as test animals to study the pharmacokinetic behavior of the compounds of the present invention in rats (plasma) after oral administration.
3 SD rats per group, male.
Formulation of drug for oral administration: 0.5% CMC-Na (1% Tween 80)
5 g of sodium carboxymethyl cellulose (CMC-Na, viscosity: 800-1200 Cps) was weighed and dissolved in 1000 mL of purified water, and 10 g of Tween 80 was added. These materials were uniformly mixed to form a clear solution.
The example compounds were weighed and dissolved in the solution and the mixture was shaken well and ultrasonicated for 15 min to obtain a colorless clear solution with a concentration of 0.5 mg/mL. Formulation of drug for intravenous administration: 5% DMSO + 10% Solutol HS15 + 85% PBS
After overnight fasting, 3 male SD rats per group were administered orally (PO) at a dose of 5 mg/kg with an administration volume of 10 mL/kg. […]
0.2 mL of blood was collected from the jugular vein of the experimental animals before administration and at 0.25 h, 0.5 h, 1.0 h, 2.0 h, 4.0 h, 6.0 h, 8.0 h, and 24.0 h after administration and placed in an EDTA-2K test tube, and the test tube was centrifuged at 8000 rpm for 6 min at 4°C to separate the plasma, which was stored at -80°C; and the animals were fed 4 h after administration.
3 Experimental results: The final determination results were obtained by using LCMS/MS method.

A further data set addresses T1, human CYP11B1 (Homo sapiens, UniProt P15538).
T1 construct: The main elements of an expression plasmid include ORF of human CYP11B1 or human CYP11B2; expressed in transfected cells
T1 sequence (P15538 25-503): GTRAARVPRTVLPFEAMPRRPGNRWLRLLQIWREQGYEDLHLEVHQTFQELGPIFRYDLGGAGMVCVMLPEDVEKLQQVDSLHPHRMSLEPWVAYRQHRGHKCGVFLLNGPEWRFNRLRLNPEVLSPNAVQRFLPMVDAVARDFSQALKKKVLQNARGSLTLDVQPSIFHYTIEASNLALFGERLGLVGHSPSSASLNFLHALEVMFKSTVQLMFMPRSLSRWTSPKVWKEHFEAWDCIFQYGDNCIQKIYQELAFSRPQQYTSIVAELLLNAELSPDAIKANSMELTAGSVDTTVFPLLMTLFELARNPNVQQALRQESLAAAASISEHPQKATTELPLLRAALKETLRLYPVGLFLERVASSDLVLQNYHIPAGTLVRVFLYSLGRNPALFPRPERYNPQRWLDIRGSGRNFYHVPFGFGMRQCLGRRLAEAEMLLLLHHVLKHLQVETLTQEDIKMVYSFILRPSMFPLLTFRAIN
Put plainly: G-402 cell enzyme experiment, CYP11B1 (cortisol product, HTRF), selectivity versus CYP11B2. The conditions noted are these: human selective factor: ratio of CYP11B1 EC50 to CYP11B2 EC50; G-402 cells. It is filed as cell-based. An excerpt:
(§1) G-402 cell line was used as host cells to express (by transient or stable transfection) an enzyme of the human CYP11 family. Specifically, G-402 cell lines stably expressing human CYP11B1 and human CYP11B2 were established respectively. […] Therefore, the G-402 cell line is very suitable as a host cell for the ectopic expression of an enzyme of the CYP11 family.
(§2) The G-402 cell line, originally derived from renal myoblastoma, can be obtained from ATCC (CRL-1440). The main elements of an expression plasmid include ORF of human CYP11B1 or human CYP11B2, a suitable promoter (CMV promoter), and a suitable resistance marker (neomycin). The expression plasmid was transfected into G-402 cells by standard technology, and a specific antibiotic was then given for screening. The activity of the enzyme expressed by the screened monoclonal cells was assessed by 11-deoxycorticosterone (substrate of CYP11B2) and 11-deoxycortisol (substrate of CYP11B1).
(§3) The G-402 cells expressing CYP11 plasmid, as established in the above solution, were cultured in McCoy's 5a Modified Medium (ATCC Catalog No. 30-2007) containing 10% FCS and 400 µg/ml G418 in an incubator at 37°C and 5% CO2. A cell enzyme experiment was carried out using DMEM/F12 medium containing 2.5% charcoal-treated FBS and an appropriate concentration of a substrate (1 µM 11-deoxycorticosterone or 1 µM 11-deoxycortisol). In order to detect the activity of the enzyme in the cells, the cells were plated in a 96-well plate and incubated for 16 h. The supernatant was then transferred and analyzed for the concentration of the expected product (the product of CYP11B2: aldosterone; the product of CYP11B1: cortisol). The concentrations of these products were determined by an HTRF experiment of CisBio.
(§4) In the cell enzyme experiment, the inhibitory effect of the test compound on the generated product can reflect the inhibitory effect thereof on the enzyme. The dose-dependent inhibition of the enzyme activity by the compound was calculated by plotting the concentration of the test compound (x axis) versus the measured product level (y axis). Then, the original data was fitted to a 4-parameter sigmoidal function (Morgan-Mercer-Flodin, MMF model) by least square method: y = (AB + Cx^D) / (B + x^D) in which A is the maximum y value, B is the EC50 determined by XLFit, C is the minimum y value, and D is the slope value. The maximum value A corresponds to the amount of the product detected without an inhibitor, and C corresponds to the amount of the product detected in the G402 cells expressing an empty plasmid.
(§5) The EC50 value of the compound of the present invention was determined by the above G-402 experiment system. The activity of the CYP11B2 enzyme was determined under the conditions of 1 µM 11-deoxycorticosterone and a variable amount of the inhibitor, and the activity of the CYP11B1 enzyme was determined under the conditions of 1 µM 11-deoxycortisol and a variable amount of the inhibitor.
(In general: In TR-FRET formats the signal depends on donor and acceptor labels being close together.)

The target in the next data set is T2, human CYP11B2 (Homo sapiens, UniProt P19099).
T2 construct: The main elements of an expression plasmid include ORF of human CYP11B1 or human CYP11B2; expressed in transfected cells
T2 sequence (P19099 25-503): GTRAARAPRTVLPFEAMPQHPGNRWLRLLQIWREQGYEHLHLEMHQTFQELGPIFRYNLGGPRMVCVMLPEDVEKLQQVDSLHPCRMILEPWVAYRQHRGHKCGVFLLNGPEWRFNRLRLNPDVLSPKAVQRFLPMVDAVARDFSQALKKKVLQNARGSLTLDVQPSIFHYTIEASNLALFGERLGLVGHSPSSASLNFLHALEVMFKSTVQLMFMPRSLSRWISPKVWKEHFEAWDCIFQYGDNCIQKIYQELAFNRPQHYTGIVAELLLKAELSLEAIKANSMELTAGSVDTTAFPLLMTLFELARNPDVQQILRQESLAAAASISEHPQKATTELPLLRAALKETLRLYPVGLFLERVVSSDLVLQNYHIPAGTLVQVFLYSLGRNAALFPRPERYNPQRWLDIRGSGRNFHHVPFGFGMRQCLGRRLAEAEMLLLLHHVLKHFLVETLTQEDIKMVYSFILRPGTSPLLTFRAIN
Put plainly: G-402 cell enzyme experiment, CYP11B2 (aldosterone product, HTRF). It counts as cell-based. The conditions noted are these: G-402 cells stably expressing human CYP11B2, 1 µM 11-deoxycorticosterone, 16 h.
Description: as §1, §2, §3, §4, §5

The AUC(0-inf) is total exposure, with the tail of the curve extrapolated. Low readings indicate less exposure, high ones more exposure. A word on the AUC(0-t): it is the area under the concentration-time curve up to a stated or last time point. Low readings indicate low exposure, high ones high exposure. In general, Cmax refers to the peak of the concentration-time curve. For orientation: Tmax means the time from dosing to the highest level. One may read the half-life as the time needed for the level to fall by half in the phase considered. As usually defined, the EC50 is the midpoint of the concentration-response curve.

With `COc1ccc2cc(-c3cncc(N4CC5(CN(C(=O)c6cnn(C)c6)C5)C4)c3)ccc2n1` [Example 23, (6-(5-(2-methoxyquinolin-6-yl)pyridin-3-yl)-2,6-diazaspiro[3.3]heptan-2-yl)(1-methyl-1H-pyrazol-4-yl)methanone], in data set [1], the AUC(0-inf) came out at 33.6 µg·h/mL, the AUC(0-t) worked out at 33.6 µg·h/mL, the Cmax came out at 5.72 µg/mL and the time of peak concentration (Tmax) stood at 2 h. Also, in data set [1], the half-life was 2.2 h and the MRT inf was found to be 3.8 h. Further, the hsF on human CYP11B1 was greater than 22909x. This compound also had an EC50 on human CYP11B2 of 0.009 µM.

Consider `CCC(=O)N[C@@H]1CCCc2c(-c3ccc4c(cnn4C)c3)cncc21` [Example 60, (R)-N-(4-(1-methyl-1H-indazol-5-yl)-5,6,7,8-tetrahydroisoquinolin-8-yl)propanamide], for which, in data set [1], the AUC(0-inf) worked out at 22.4 µg·h/mL, the AUC(0-t) is 21.8 µg·h/mL, the Cmax was 4.9 µg/mL and the Tmax turned out to be 2 h. Further, in data set [1], the half-life was 1.3 h and the MRT inf worked out at 3.1 h. Also, the hsF at human CYP11B1 was found to be 170x. On human CYP11B2, this compound registered an EC50 of 0.069 µM.

As for `COc1ccc2cc(-c3cncc(N4CC5(CN(C(=O)C6(C#N)CC6)C5)C4)c3)ccc2n1` [Example 81, 1-(6-(5-(2-methoxyquinolin-6-yl)pyridin-3-yl)-2,6-diazaspiro[3.3]heptane-2-carbonyl)cyclopropane-1-carbonitrile], at human CYP11B1, the hsF is listed as 261x. In addition, at human CYP11B2, the EC50 was 0.005 µM.

Consider `COc1ccc2cc(-c3cncc(N4CC5(CN(C(=O)C6CC6)C5)C4)c3)ccc2n1` [Example 82, cyclopropyl (6-(5-(2-methoxyquinolin-6-yl)pyridin-3-yl)-2,6-diazaspiro[3.3]heptan-2-yl)methanone], for which the hsF on human CYP11B1 stood at 842x. At human CYP11B2, the EC50 was 0.018 µM.

Regarding `COc1ccc2cc(-c3cncc(N4CC5(CN(C(=O)c6ccc(C)nc6)C5)C4)c3)ccc2n1` [Example 84, (6-(5-(2-methoxyquinolin-6-yl)pyridin-3-yl)-2,6-diazaspiro[3.3]heptan-2-yl)(6-methylpyridin-3-yl)methanone], the hsF on human CYP11B1 is on record as 1652x. For the same compound, the response on human CYP11B2 was half-maximal at 0.008 µM (EC50).

Take `COc1ccc2cc(-c3cncc(N4CC5(CN(C(C)=O)C5)C4)c3)ccc2n1` [Example 92, 1-(6-(5-(2-methoxyquinolin-6-yl)pyridin-3-yl)-2,6-diazaspiro[3.3]heptan-2-yl)ethan-1-one]: the hsF at human CYP11B1 is reported as 1285x. At human CYP11B2, this compound displayed an EC50 of 0.011 µM.

Take `COc1ccc2cc(-c3cncc(N4CC5(CN(C(C)=O)C5)C4)n3)ccc2n1` [Example 93, 1-(6-(6-(2-methoxyquinolin-6-yl)pyrazin-2-yl)-2,6-diazaspiro[3.3]heptan-2-yl)ethan-1-one]: the hsF at human CYP11B1 came to 229x. Also, on human CYP11B2, the EC50 came to 0.048 µM.

In the case of `COc1ccc2cc(-c3cncc(N4CC5(CN(C(=O)C6(F)CC6)C5)C4)c3)ccc2n1` [Example 94, (1-fluorocyclopropyl)(6-(5-(2-methoxyquinolin-6-yl)pyridin-3-yl)-2,6-diazaspiro[3.3]heptan-2-yl)methanone], the hsF at human CYP11B1 came out at 350x. The same compound had an EC50 at human CYP11B2 of 0.013 µM.

As to `COc1ccc2cc(-c3cncc(N4CC5(CN(C(=O)C6(O)CC6)C5)C4)c3)ccc2n1` [Example 97, (1-hydroxycyclopropyl)(6-(5-(2-methoxyquinolin-6-yl)pyridin-3-yl)-2,6-diazaspiro[3.3]heptan-2-yl)methanone], the hsF on human CYP11B1 was 971x. Further, the EC50 on human CYP11B2 was found to be 0.011 µM.

Regarding `Cc1ccc(C(=O)N2CC3(C2)CN(c2cncc(-c4ccc5c(c4)sc(=O)n5C)c2)C3)cn1` [Example 101, 3-methyl-6-(5-(6-(6-methylnicotinoyl)-2,6-diazaspiro[3.3]heptan-2-yl)pyridin-3-yl)benzo[d]thiazol-2(3H)-one], at human CYP11B1, the hsF was greater than 4651x. Moreover, the response at human CYP11B2 was half-maximal at 0.043 µM (EC50).

Regarding `Cn1cc(C(=O)N2CC3(C2)CN(c2cncc(-c4ccc5c(c4)sc(=O)n5C)n2)C3)cn1` [Example 107, 3-methyl-6-(6-(6-(1-methyl-1H-pyrazole-4-carbonyl)-2,6-diazaspiro[3.3]heptan-2-yl)pyrazin-2-yl)benzo[d]thiazol-2(3H)-one], the hsF at human CYP11B1 is on record as greater than 1923x. Besides, the EC50 at human CYP11B2 was determined as 0.104 µM.

Consider `COc1ccc2cc(-c3cncc(N4CC5(CC(N6CCc7cc(C)ncc7C6=O)C5)C4)c3)ccc2n1` [Example 108, 2-(2-(5-(2-Methoxyquinolin-6-yl)pyridin-3-yl)-2-azaspiro[3.3]heptan-6-yl)-6-methyl-3,4-dihydro-2,7-diazanaphthalen-1(2H)-one], for which the hsF at human CYP11B1 is listed as greater than 2817x. On human CYP11B2, a half-maximal response (EC50) required 0.071 µM.

As to `COc1ccc2cc(-c3cncc(N4CCC(NC(=O)c5cnn(C)c5)CC4)n3)ccc2n1` [Example 109, N-(1-(6-(2-methoxyquinolin-6-yl)pyrazin-2-yl)piperidin-4-yl)-1-methyl-1H-pyrazole-4-carboxamide], the hsF at human CYP11B1 amounted to 159x. The compound also had an EC50 at human CYP11B2 of 0.006 µM.
